The nature of this data set: solvent given as SMILES.
[1] abbreviates: in CCCCCCCCC=CCCCCCCCC(=O)OCC(COC(=O)CCCCCCCC=CCCCCCCCC)OC(=O)CCCCCCCC=CCCCCCCCC

On to `c1ccc2cc3ccccc3cc2c1`, for which the “solvation free energy, 298 K” value is, setting by setting: (in Brc1ccccc1) -11.6 kcal/mol; (in C1CCOC1) -11.9 kcal/mol; (in C1COCCO1) -11.5 kcal/mol; (in CC(=O)N(C)C) -11.5 kcal/mol; (in CC(C)(C)O) -9.71 kcal/mol; (in CC(C)=O) -11.2 kcal/mol. Moreover, the “solvation free energy, 298 K” value (in CC(C)CC(C)(C)C) was -9.93 kcal/mol; the “solvation free energy, 298 K” value (in CC(C)CC(C)O) was -9.89 kcal/mol; the “solvation free energy, 298 K” value (in CC(C)CCCC(C)CCO) was -10.2 kcal/mol; the “solvation free energy, 298 K” value (in CC(C)CCO) was -9.93 kcal/mol; the “solvation free energy, 298 K” value (in CC(C)CO) was -9.77 kcal/mol; the “solvation free energy, 298 K” value (in CC(C)O) is -10 kcal/mol. The “solvation free energy, 298 K” value is, setting by setting: (in CC(C)OC(C)C) -10.5 kcal/mol; (in CC(C)OCCO) -10.8 kcal/mol; (in CC(O)COC(C)(C)C) -10.5 kcal/mol; (in CCC(C)(C)O) -9.99 kcal/mol; (in CCC(C)=O) -11.3 kcal/mol; (in CCC(C)O) -9.9 kcal/mol. Besides, the “solvation free energy, 298 K” value is -11.2 kcal/mol (in CCCC(=O)OC); -10 kcal/mol (in CCCC(C)CO); -9.99 kcal/mol (in CCCC(C)O); -10.1 kcal/mol (in CCCCC(CC)CO); -10.2 kcal/mol (in CCCCCC); -10.2 kcal/mol (in CCCCCCC). Besides, the “solvation free energy, 298 K” value is, setting by setting: (in CCCCCCCC) -10.2 kcal/mol; (in CCCCCCCCCC) -10.3 kcal/mol; (in CCCCCCCCCCO) -10.5 kcal/mol; (in CCCCCCCCO) -10.3 kcal/mol; (in CCCCCCCO) -10.3 kcal/mol; (in CCCCCCO) -10.3 kcal/mol. Further, the “solvation free energy, 298 K” value (in CCCCCO) is -10.2 kcal/mol; the “solvation free energy, 298 K” value (in CCCCCOC(C)=O) was -11.1 kcal/mol; the “solvation free energy, 298 K” value (in CCCCCl) is -11.2 kcal/mol; the “solvation free energy, 298 K” value (in CCCCO) is -10.1 kcal/mol; the “solvation free energy, 298 K” value (in CCCCOC(C)=O) is -11.1 kcal/mol; the “solvation free energy, 298 K” value (in CCCCOCCCC) was -10.6 kcal/mol. Further, the “solvation free energy, 298 K” value is -10.8 kcal/mol (in CCCCOCCO); -10 kcal/mol (in CCCO); -11.1 kcal/mol (in CCCOC(C)=O); -10.8 kcal/mol (in CCCOCCO); -10.4 kcal/mol (in CCO); -11.1 kcal/mol (in CCOC(C)=O). Further, the “solvation free energy, 298 K” value is -10.9 kcal/mol (in CCOCC); -10.7 kcal/mol (in CCOCCO); -12 kcal/mol (in CN1CCCC1=O); -11.6 kcal/mol (in CN(C)C=O); -10.4 kcal/mol (in CNC=O); -9.89 kcal/mol (in CO). Besides, the “solvation free energy, 298 K” value is, setting by setting: (in COC(C)(C)C) -10.7 kcal/mol; (in COC(C)=O) -11.1 kcal/mol; (in COC(C)CCO) -10.7 kcal/mol; (in COCCO) -10.8 kcal/mol; (in Cc1ccc(C)cc1) -11.2 kcal/mol; (in Cc1cccc(C)c1) -11.3 kcal/mol. For the same compound, the “solvation free energy, 298 K” value reads like this: (in Cc1ccccc1C) -11.5 kcal/mol; (in ClC(Cl)(Cl)Cl) -11.2 kcal/mol; (in ClC(Cl)Cl) -11.5 kcal/mol; (in ClCCl) -11.8 kcal/mol; (in Clc1ccccc1) -11.5 kcal/mol; (in Fc1ccccc1) -11.3 kcal/mol. For the same compound, the “solvation free energy, 298 K” value (in N#Cc1ccccc1) was -11.4 kcal/mol; the “solvation free energy, 298 K” value (in O) is -4.12 kcal/mol; the “solvation free energy, 298 K” value (in O=C1CCCCC1) is -11.6 kcal/mol.
In the case of `O=C(O)CCC(=O)O`, the “solvation free energy, 298 K” value reads like this: (in CC(C)O) -12.3 kcal/mol; (in CCCO) -12.2 kcal/mol; (in CCO) -12.6 kcal/mol; (in O) -12.6 kcal/mol; (in O=C1CCCCC1) -11.7 kcal/mol.
`CCCC(=O)OC`: the “solvation free energy, 298 K” value reads like this: (in CCCO) -4.47 kcal/mol; (in CO) -4.84 kcal/mol; (in O) -2.84 kcal/mol.
For `O=C(CCCN1CCC(O)(c2ccc(Cl)cc2)CC1)c1ccc(F)cc1`, the “solvation free energy, 298 K” value was -19.5 kcal/mol (in CCCCOC(C)=O) and -15.4 kcal/mol (in O).
With `Clc1ccc(-c2ccccc2)cc1`, the “solvation free energy, 298 K” value was -9.7 kcal/mol under setting [1], -9.25 kcal/mol (in CCCCCCCCO) and -2.44 kcal/mol (in O).
Turning to `CCCCCCO`, the “solvation free energy, 298 K” value was -5.98 kcal/mol (in Brc1ccccc1); -7.42 kcal/mol (in C1CCOC1); -6.44 kcal/mol (in CC#N); -5.1 kcal/mol (in CC(C)CC(C)(C)C); -7.54 kcal/mol (in CC(C)O); -6.96 kcal/mol (in CCC(C)=O). The “solvation free energy, 298 K” value (in CCCCCC) is -5.02 kcal/mol; the “solvation free energy, 298 K” value (in CCCCCCC) was -5.27 kcal/mol; the “solvation free energy, 298 K” value (in CCCCCCCC) is -4.99 kcal/mol; the “solvation free energy, 298 K” value (in CCCCCCCCCC) was -4.99 kcal/mol; the “solvation free energy, 298 K” value (in CCCCCCCCCCCCCCCC) is -4.89 kcal/mol; the “solvation free energy, 298 K” value (in CCCCCCCCCCO) was -6.99 kcal/mol. Further, the “solvation free energy, 298 K” value is -7.06 kcal/mol (in CCCCCCCCO); -5.99 kcal/mol (in CCCCCl); -6.83 kcal/mol (in CCCCOC(C)=O); -6.31 kcal/mol (in CCCOCCC); -5.91 kcal/mol (in Cc1ccccc1C); -6.04 kcal/mol (in NC=O). For the same compound, the “solvation free energy, 298 K” value is, setting by setting: (in O) -4.4 kcal/mol; (in [2H]O[2H]) -4.57 kcal/mol.
With `OCc1ccccc1O`, for the setting “in O”, the “solvation free energy, 298 K” value is -10.2 kcal/mol.
On the same count and under the same terms, next, `CC(=O)OCCOC(C)=O`: -6.34 kcal/mol.
With `CN1CCCC1=O`, the “solvation free energy, 298 K” value (in C1CCCCC1) was -5.73 kcal/mol; the “solvation free energy, 298 K” value (in CC(C)CC(C)(C)C) was -5.93 kcal/mol; the “solvation free energy, 298 K” value (in O) was -7.83 kcal/mol; the “solvation free energy, 298 K” value (in c1ccccc1) was -6.83 kcal/mol.
For the compound `C1=CC=CCC=C1`, the “solvation free energy, 298 K” value (in O) is -0.99 kcal/mol.
For `CSC`, the “solvation free energy, 298 K” value is -3.04 kcal/mol (in C=C(C)CC(C)(C)C); -3.07 kcal/mol (in C=CCCCC); -2.9 kcal/mol (in CC(C)CC(C)(C)C); -2.97 kcal/mol (in CCCCCC); -3.6 kcal/mol (in ClC(Cl)(Cl)Cl); -4.08 kcal/mol (in ClC(Cl)Cl). Also, the “solvation free energy, 298 K” value (in O) is -1.5 kcal/mol.
For the compound `C#CCCCCC`, the “solvation free energy, 298 K” value by setting is: (in C1CCC2CCCCC2C1) -4.37 kcal/mol; (in C1CCC(C2CCCCC2)CC1) -4.33 kcal/mol; (in CN(C)C=O) -4.37 kcal/mol; (in CS(C)=O) -3.95 kcal/mol; (in N#CCCCCC#N) -3.83 kcal/mol; (in NCCO) -2.8 kcal/mol. For the same compound, the “solvation free energy, 298 K” value by setting is: (in O) 0.59 kcal/mol; (in O=Cc1ccco1) -4.12 kcal/mol; (in OCc1ccco1) -3.93 kcal/mol; (in c1ccc2c(c1)CCCC2) -4.66 kcal/mol; (in c1ccc(C2CCCCC2)cc1) -4.56 kcal/mol.
As for `CC(C)CC(C)O` (stereo unspecified), the “solvation free energy, 298 K” value was -4.63 kcal/mol (in CCCCCCCC) and -4.56 kcal/mol (in CCCCCCCCCC).
In the case of `Clc1cc2c(cc1Cl)Oc1cc(Cl)c(Cl)cc1O2`, for the setting “in O”, the “solvation free energy, 298 K” value was -3.37 kcal/mol.
The same measure, in the same setting: next, `CCCSC(=O)N(CCC)CCC`: -4.13 kcal/mol; `CN(CC(F)(F)F)c1ccccc1`: -1.92 kcal/mol.
Same read-out and setting: next, `CCC1(c2ccccc2)C(=O)NC(=O)NC1=O`: -15.4 kcal/mol.
`CC(F)(Cl)Cl`: the “solvation free energy, 298 K” value (in CCCCCCCC(=O)OCC(COC(=O)CCCCCCC)OC(=O)CCCCCCC) is -2.89 kcal/mol.
For `CC(=O)C(C)=O`, for the setting “in O”, the “solvation free energy, 298 K” value was -4.3 kcal/mol.
For the compound `CCCCCCCCCCCCCCCCCCCCCCC`, the “solvation free energy, 298 K” value runs as follows: (in CC(=O)N(C)C) -15.7 kcal/mol; (in CC(C)(C)O) -14.2 kcal/mol; (in CC(C)=O) -13.4 kcal/mol; (in CCC(C)=O) -14.3 kcal/mol; (in CCC(C)O) -14.1 kcal/mol; (in CCCCOC(C)=O) -14.9 kcal/mol. Further, the “solvation free energy, 298 K” value was -14.4 kcal/mol (in CCOC(C)=O), -15.8 kcal/mol (in CN(C)C=O), -13.7 kcal/mol (in COC(C)=O) and 5.07 kcal/mol (in O).
For the compound `CCOC(=O)OCC`, the “solvation free energy, 298 K” value (in COC(C)(C)C) was -5.35 kcal/mol; the “solvation free energy, 298 K” value (in ClC(Cl)(Cl)Cl) is -5.78 kcal/mol; the “solvation free energy, 298 K” value (in O) was -3.28 kcal/mol.
For the compound `Cc1cccc(O)c1`, the “solvation free energy, 298 K” value reads like this: (in CC(C)CCCC(C)CCCC(C)CCCCC(C)CCCC(C)CCCC(C)C) -5.78 kcal/mol; (in CCCCCC) -5.84 kcal/mol; (in CCCCCCCCCCCCCCCC) -5.73 kcal/mol.
`O=[N+]([O-])c1cccc(CO)c1`: the “solvation free energy, 298 K” value (in O) is -9.19 kcal/mol.
Take `C=C(C)C(=O)OC`: under “in O”, the “solvation free energy, 298 K” value was -2.53 kcal/mol.
As for `ClC(Cl)(Cl)C(Cl)(Cl)Cl`, the “solvation free energy, 298 K” value is -5.42 kcal/mol under setting [1] and -6.1 kcal/mol (in CCCCCCCCO).
With `CCCNCc1ccc(C)cc1`, the “solvation free energy, 298 K” value (in O) is -5.73 kcal/mol.
Still for that read-out and setting: the result for `O=C(c1ccccc1)N(O)c1ccccc1` reads -11.3 kcal/mol.
For the compound `CCC(C)C(C)O` (stereo unspecified), the “solvation free energy, 298 K” value is -4.87 kcal/mol (in CCCCCCCC) and -4.81 kcal/mol (in CCCCCCCCCC).
Take `CCCCCC(=O)O`: for the setting “in O”, the “solvation free energy, 298 K” value was -6.11 kcal/mol.
`Clc1cc(Cl)c(-c2ccccc2)c(Cl)c1`: the “solvation free energy, 298 K” value (in O) is -2.16 kcal/mol.
For the compound `CCC(CC)CC`, the “solvation free energy, 298 K” value by setting is: (in C=CCCCCCCCCCCCCCC) -4.07 kcal/mol; (in CC#N) -3.02 kcal/mol; (in O) 2.61 kcal/mol.
Take `Cc1ccncc1`: the “solvation free energy, 298 K” value is, setting by setting: (in CC(C)CC(C)(C)C) -4.95 kcal/mol; (in O) -4.94 kcal/mol.
As for `COc1ccc(C(c2ccc(OC)cc2)C(Cl)(Cl)Cl)cc1`, under “in O”, the “solvation free energy, 298 K” value was -6.93 kcal/mol.
With `C=CCCC(C)C`, the “solvation free energy, 298 K” value by setting is: (in C=CCCCCCCCCCCCCCC) -3.87 kcal/mol; (in O) 1.77 kcal/mol.
As for `CCCCC1CCCCC1`, the “solvation free energy, 298 K” value is -5.97 kcal/mol (in CCC(C)=O); -5.65 kcal/mol (in CCO); -5.09 kcal/mol (in CN1CCCC1=O); 1.96 kcal/mol (in O); -4.97 kcal/mol (in O=Cc1ccco1); -2.38 kcal/mol (in OCCO). In addition, where the note is “in OCCOCCO”, the “solvation free energy, 298 K” value is -3.78 kcal/mol.
`CC(=O)OC1CC(C)CCC1C(C)C` (stereo unspecified): the “solvation free energy, 298 K” value (in O) was -2.59 kcal/mol.
Same read-out and setting: the result for `Clc1ccccn1` reads -4.39 kcal/mol.
On to `Cc1ccc(O)cc1C`, for which the “solvation free energy, 298 K” value runs as follows: (in CCCCCC) -6.89 kcal/mol; (in CCCCCCC) -6.89 kcal/mol; (in CCCCCCCC) -6.85 kcal/mol; (in O) -6.51 kcal/mol.

(Values after the CombiSolv-Exp solvation set (Vermeire and Green 2021).)
